Starred links: 1 amine or outer side, 2 acyl side, 3 side chain; linkers in the order of their positions; H or OH if unused. Positions of bridges follow the written chain, without caps; N, C: chain ends. Non-standard residues stand in square brackets, D forms with d. Residues, ends and D or L forms follow the SMILES beside them. X1 = O=C(O)CCCCCCCCCCCCCCCCCCC(=O)N[C@@H](CCCCNC(=O)COCCOCCNC(=O)COCCOCCNC(=O)CCC(=O)N(CCNC(=O)C[*:1])CCNC(=O)C[*:2])C(=O)O; NMeR = CN[C@@H](CCCNC(=N)N)C(=O)O; Hyp = O=C(O)[C@@H]1C[C@@H](O)CN1; αMeK = C[C@](N)(CCCCN)C(=O)O; Aib = CC(C)(N)C(=O)O
Key:
[1] = background, in words; cited from earlier work
[2] = background, in words; cited from earlier work; remark: listed apart in the source
[3] = Pharmacokinetic evaluation in SD rats; type: in vivo, male SD rat; conditions: plasma, rat
Procedure: 1. The pharmacokinetic behaviors of the polypeptide derivatives (i.e., AMY-001 to AMY-041) prepared in Example 1 and Example 2 in SD rats were tested.
Each polypeptide derivative (i.e., AMY-001 to AMY-041) was administered to male SD rat as a single injection via subcutaneous injection (SC, 3 mg/kg, with PBS as a medicament vehicle, a concentration of 1.5 mg/mL, and an administration volume of 2 mL) and intravenous injection (IV, 1 mg/kg, with PBS as a medicament vehicle, a concentration of 0.5 mg/mL, and an administration volume of 2 mL), respectively. After administration, whole blood samples were respectively collected from the jugular vein or other appropriate veins at selected time points. 0.2 mL of blood was collected and placed in a labeled EDTA-K2 anticoagulant tube. The tube was gently inverted up and down to ensure thorough mixing of the anticoagulant (EDTA-K2) with the blood, immediately placed on wet ice and centrifuged as soon as possible to separate plasma, and the centrifugation conditions were set to 4° C., 6800 g, and 6 minutes. Plasma samples were stored in a refrigerator at a temperature not exceeding −20° C. until subsequent analysis.
(§1) Under yellow light conditions in an ice water bath, (1) except for the blank sample, 300 μL of precipitant containing internal standard was added to a 96-well plate containing 20 μL of a standard curve sample, a quality control sample or an unknown sample; 300 μL of acetonitrile was added to the blank sample; (2) vortex mixing; (3) centrifugation; (4) 150 μL of supernatant was taken and added into a new 96-well plate, and then mixed well with 150 μL of ultrapure water; and (5) The above samples were quantitatively analyzed by using LC-MS analysis. Gradient elution was performed on a XB—C18 chromatographic column (2.1*100 mm, 3 μm), with the mobile phase as follows: mobile phase A=0.1% (volume percentage, v/v) formic acid-water; and mobile phase B=acetonitrile. Pharmacokinetic parameters were calculated using Phoenix WinNonlin software.

CTR = biological target: T1, CTR (Homo sapiens, UniProt P30988); assay: HTRF cAMP assay, CTR; type: cell-based; conditions: HEK293/pGM-CREB-L-Luc/CTR pool, read-out: IC50 of receptor CTR
T1 construct: expressed in transfected cells
T1 sequence (P30988 25-474): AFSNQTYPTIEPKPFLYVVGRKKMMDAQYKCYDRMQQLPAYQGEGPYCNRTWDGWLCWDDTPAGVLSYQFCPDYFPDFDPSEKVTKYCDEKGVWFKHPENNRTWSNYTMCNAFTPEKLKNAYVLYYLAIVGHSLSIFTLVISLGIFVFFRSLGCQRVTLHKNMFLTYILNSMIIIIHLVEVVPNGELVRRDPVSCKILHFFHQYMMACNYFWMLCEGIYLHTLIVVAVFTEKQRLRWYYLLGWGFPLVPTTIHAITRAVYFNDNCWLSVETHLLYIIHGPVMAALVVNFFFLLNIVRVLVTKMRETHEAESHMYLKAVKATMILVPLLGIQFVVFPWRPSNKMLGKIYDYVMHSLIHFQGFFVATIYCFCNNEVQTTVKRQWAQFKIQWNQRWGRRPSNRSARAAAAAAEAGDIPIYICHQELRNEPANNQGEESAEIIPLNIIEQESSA
Excerpt: (§2) 2. The polypeptide derivatives prepared in Example 1 and Example 2 of the present disclosure can bind to the target AMYR and CTR receptors on the cell membrane, activate the receptors and release cAMP. Therefore, the activity of the analyte can be determined by using an HTRF (homogeneous time-resolved fluorescence) method and using a cAMP detection kit. The specific steps were as follows:
(§3) A stable transfected cell line of HEK293/pGM-CREB-L-Luc/AMY3R pool and HEK293/pGM-CREB-L-Luc/CTR pool was constructed. The polypeptide derivatives (i.e., AMY-001 to AMY-041) prepared in Examples 1 and 2 were subjected to 5-fold serial dilution from a maximum of 1000 nM to prepare a dilution series containing 8 to 11 concentration gradients. Cagrilintide and sCT were selected as positive controls for testing, and a dilution series was prepared according to the same method for testing. The test cell lines were selected and treated with cAMP-specific trypsin for digestion, and then suspended with 3 mL of serum-free DMEM medium by pipetting, and the cells were counted. 5 μL of IBMX (prepared with serum-free DMEM medium, 0.5 mM) and test cells (5 μL/7500 cells/well) were sequentially added to a 384-well plate, incubated under the conditions of 37° C., 5% CO2 for 30 minutes, then added with cAMP-d2 (5 μL, 1×) and Anti-cAMP-Cryptate (5 μL, 1×) and placed at room temperature for 1 hour. A HTRF value was determined by a chemiluminescence microplate reader, and the results were recorded. An activation curve was plotted using GraphPad Prism software to calculate an IC50 value of each polypeptide derivative. […] The IC50 values of some polypeptides were exemplarily shown in this example, see Table 3, FIG. 2 and FIG. 3 for details.

AMY3R = biological target: T2, AMY3R (Homo sapiens, UniProt P30988); assay: HTRF cAMP assay, AMY3R; type: cell-based; conditions: HEK293/pGM-CREB-L-Luc/AMY3R pool, read-out: IC50 of receptor AMY3R
T2 construct: expressed in transfected cells
T2 sequence (P30988 25-474): T1 sequence (P30988 25-474)
T2 sequence (O60896 24-148 partner): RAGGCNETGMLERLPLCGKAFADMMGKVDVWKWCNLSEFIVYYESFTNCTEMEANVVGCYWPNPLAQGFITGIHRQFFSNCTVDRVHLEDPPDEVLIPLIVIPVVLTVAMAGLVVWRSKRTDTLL
Excerpt: as §2, §3

[4] = Pharmacokinetic evaluation in Cynomolgus macaques; type: in vivo, adult male Cynomolgus macaques; conditions: cynomolgus monkey, plasma, 0.2 mg/kg
Procedure: 2. The pharmacokinetic behaviors of the polypeptide derivatives (i.e., AMY-001 to AMY-041) prepared in Example 1 and Example 2 in Cynomolgus macaques were tested.
Each polypeptide derivatives (i.e., AMY-001 to AMY-041) was respectively administered to adult male Cynomolgus macaques as a single injection via subcutaneous injection (S.C., 0.2 mg/kg, with PBS as a medicament vehicle, a concentration of 0.2 mg/mL, […], with PBS as a medicament vehicle, a concentration of 0.2 mg/mL, and an administration volume of 1 mL), respectively. After administration, whole blood samples were respectively collected from the jugular vein or other appropriate veins at selected time points. 0.2 mL of blood was collected and placed in a labeled EDTA-K2 anticoagulant tube. The tube was gently inverted up and down to ensure thorough mixing of the anticoagulant (EDTA-K2) with the blood, immediately placed on wet ice and centrifuged as soon as possible to separate plasma, and the centrifugation conditions were set to 4° C., 6800 g, and 6 minutes. Plasma samples were stored in a refrigerator at a temperature not exceeding −20° C. for subsequent analysis.
as §1, with “the” for “The”, “A=0.1%” for “A=0.1% (volume percentage, v/v)”

| Compound | stability [1] | in-vivo half-life [2] | AUC(0-inf) ([3]; 1 mg/kg, IV (1 mpk)) [µg·h/mL] | clearance ([3]; 1 mg/kg, IV (1 mpk)) [mL/h/kg] | half-life ([3]; 1 mg/kg, IV (1 mpk)) [h] | AUC(0-inf) ([3]; 3 mg/kg, SC (3 mpk)) [µg·h/mL] | Cmax ([3]; 3 mg/kg, SC (3 mpk)) [ng/mL] | Tmax ([3]; 3 mg/kg, SC (3 mpk)) [h] | bioavailability ([3]; 3 mg/kg, SC (3 mpk)) [%] | half-life ([3]; 3 mg/kg, SC (3 mpk)) [h] | EC50 (CTR) [pM] | EC50 (AMY3R) [pM] | AUC(0-inf) ([4]; IV (0.2 mpk)) [µg·h/mL] | clearance ([4]; IV (0.2 mpk)) [mL/h/kg] | half-life ([4]; IV (0.2 mpk)) [h] | AUC(0-inf) ([4]; SC (0.2 mpk)) [µg·h/mL] | Cmax ([4]; SC (0.2 mpk)) [ng/mL] | Tmax ([4]; SC (0.2 mpk)) [h] | bioavailability ([4]; SC (0.2 mpk)) [%] | half-life ([4]; SC (0.2 mpk)) [h] |
| --- | --- | --- | --- | --- | --- | --- | --- | --- | --- | --- | --- | --- | --- | --- | --- | --- | --- | --- | --- | --- |
| CC(C)C[C@H](NC(=O)[C@H](CCCCN)NC(=O)CNC(=O)[C@H](CC(C)C)NC(=O)[C@@H](NC(=O)[C@@H]1CSSC[C@H](N)C(=O)N[C@@H](CO)C(=O)N[C@@H](CC(N)=O)C(=O)N[C@@H](CC(C)C)C(=O)N[C@@H](CO)C(=O)N[C@@H]([C@@H](C)O)C(=O)N1)C(C)C)C(=O)N[C@@H](CO)C(=O)N[C@@H](CCC(N)=O)C(=O)N[C@@H](CCC(=O)O)C(=O)N[C@@H](CC(C)C)C(=O)N[C@@H](Cc1c[nH]cn1)C(=O)N[C@@H](CCCCN)C(=O)N[C@@H](CC(C)C)C(=O)N[C@@H](CCC(N)=O)C(=O)N[C@H](C(=O)N[C@@H](Cc1ccc(O)cc1)C(=O)N1CCC[C@H]1C(=O)N[C@@H](CCCNC(=N)N)C(=O)N[C@H](C(=O)N[C@@H](CC(N)=O)C(=O)N[C@H](C(=O)NCC(=O)N[C@@H](CO)C(=O)NCC(=O)N[C@H](C(=O)N1CCC[C@H]1C(N)=O)[C@@H](C)O)[C@@H](C)O)[C@@H](C)O)[C@@H](C)O [sCT] | poor stability | short in-vivo half-life |  |  |  |  |  |  |  |  |  |  |  |  |  |  |  |  |  |  |
| CC(=O)N[C@@H](C)C(=O)N[C@@H](CO)C(=O)N[C@@H](Cc1c[nH]cn1)C(=O)N[C@@H](CC(C)C)C(=O)N[C@@H](CO)C(=O)N[C@H](C(=O)N[C@@H](C)C(=O)N[C@H]1CSCC(=O)NCCN(C(=O)CCC(=O)NCCOCCOCC(=O)NCCOCCOCC(=O)NCCCC[C@H](NC(=O)CCCCCCCCCCCCCCCCCCC(=O)O)C(=O)O)CCNC(=O)CSC[C@@H](C(=O)N[C@@H](CC(C)C)C(=O)N[C@@H](Cc2c[nH]cn2)C(=O)N[C@@](C)(CCCCN)C(=O)N[C@@H](CC(C)C)C(=O)NC(C)(C)C(=O)N[C@@H](CC(=O)O)C(=O)N[C@@H](Cc2ccc(O)cc2)C(=O)N2CCC[C@H]2C(=O)N(C)[C@@H](CCCNC(=N)N)C(=O)N[C@H](C(=O)N[C@@H](CC(=O)O)C(=O)N[C@H](C(=O)NCC(=O)N[C@@H](C)C(=O)NCC(=O)N[C@@H](CO)C(=O)N2C[C@H](O)C[C@H]2C(N)=O)C(C)C)[C@@H](C)O)NC(=O)[C@H](C)NC(=O)[C@H](CO)NC(=O)[C@H](CC(C)C)NC(=O)[C@H](CCCNC(=N)N)NC(=O)CNC(=O)[C@H](CC(C)C)NC1=O)[C@@H](C)O [AMY-011, Ac-ASHLSTACLGRLSACLH-(αMeK)-L-Aib-DYP-(N-Me-R)-TDVGAGS-Hyp-NH2] (Ac-ASHLSTACLGRLSACLH[αMeK]L[Aib]DYP[NMeR]TDVGAGS[Hyp]-NH2; linker 8-15 via X1) |  |  | 143 | 7.02 | 15.5 | 283 | 6830 | 8 | 65.9 | 15.6 | 12.2 | 4.8 |  |  |  |  |  |  |  |  |
| CC(=O)N[C@@H](C)C(=O)N[C@@H](CO)C(=O)N[C@@H](Cc1c[nH]cn1)C(=O)N[C@@H](CC(C)C)C(=O)N[C@@H](CO)C(=O)N[C@H](C(=O)N[C@@H](C)C(=O)N[C@H]1CSCC(=O)NCCN(C(=O)CCC(=O)NCCOCCOCC(=O)NCCOCCOCC(=O)NCCCC[C@H](NC(=O)CCCCCCCCCCCCCCCCCCC(=O)O)C(=O)O)CCNC(=O)CSC[C@@H](C(=O)N[C@@H](CC(C)C)C(=O)N[C@@H](Cc2c[nH]cn2)C(=O)N[C@@](C)(CCCCN)C(=O)N[C@@H](CC(C)C)C(=O)NC(C)(C)C(=O)N[C@@H](CC(=O)O)C(=O)N[C@@H](Cc2ccc(O)cc2)C(=O)N2CCC[C@H]2C(=O)N[C@@H](CCC(N)=O)C(=O)N[C@H](C(=O)N[C@@H](CC(=O)O)C(=O)N[C@H](C(=O)NCC(=O)N[C@@H](C)C(=O)NCC(=O)N[C@@H](CO)C(=O)N2C[C@H](O)C[C@H]2C(N)=O)C(C)C)[C@@H](C)O)NC(=O)[C@H](C)NC(=O)[C@H](CO)NC(=O)[C@H](CC(C)C)NC(=O)[C@H](CCCNC(=N)N)NC(=O)CNC(=O)[C@H](CC(C)C)NC1=O)[C@@H](C)O [AMY-015, Ac-ASHLSTACLGRLSACLH-(αMeK)-L-Aib-DYPQTDVGAGS-Hyp-NH2] (Ac-ASHLSTACLGRLSACLH[αMeK]L[Aib]DYPQTDVGAGS[Hyp]-NH2; linker 8-15 via X1) |  |  | 286 | 3.52 | 20.5 | 567 | 11100 | 24 | 66.1 | 20.6 |  |  | 942 | 0.217 | 146 | 514 | 2260 | 24 | 54.5 | 143 |

— patent US20260337245A1, “POLYPEPTIDE OR ANALOG THEREOF AND USE THEREOF” (Shenzhen Bay Laboratory, priority 2024, published 2026)
